ChEMBL document CHEMBL3627696, “Pontemazines A and B, phenazine derivatives containing a methylamine linkage from Streptomyces sp. UT1123 and their protective effect to HT-22 neuronal cells” (2015)
Calls of active or inactive are those of the source. The rule behind the calls is not given here.

Assays:
HT-22 [1] = assay: Neuroprotective activity against monosodium glutamate-induced cell death in mouse HT22 cells at 10 uM preincubated for 2 hrs followed by monosodium glutamate addition measured after 24 hrs by phase contrast microscopic analysis; type: functional, cell-based
HT-22 [2] = assay: Neuroprotective activity against monosodium glutamate-induced cell death in mouse HT22 cells assessed as cell viability at 10 uM preincubated for 2 hrs followed by monosodium glutamate addition measured after 24 hrs by MTT assay (reference value: 50%); type: functional; conditions: read-out: Activity
HT-22 [3] = assay: Neuroprotective activity against monosodium glutamate-induced cell death in mouse HT22 cells at 5 uM preincubated for 2 hrs followed by monosodium glutamate addition measured after 24 hrs by phase contrast microscopic analysis; type: functional, cell-based
HT-22 [4] = assay: Neuroprotective activity against monosodium glutamate-induced cell death in mouse HT22 cells assessed as cell viability at 25 to 50 uM preincubated for 2 hrs followed by monosodium glutamate addition measured after 24 hrs by MTT assay (reference value: 50%); type: functional

| Compound | Activity (HT-22 [1]) | viability at 10 µM (HT-22 [2]) [%] | Activity (HT-22 [3]) | Activity (HT-22 [4]) [%] |
| --- | --- | --- | --- | --- |
| COc1ccc(CNc2ccccc2C(N)=O)c2nc3cccc(C(N)=O)c3nc12 | Active | 90 | inactive |  |
| COc1ccc(CNc2ccccc2C(N)=O)c2nc3cccc(C(=O)O)c3nc12 | Active | 90 | inactive | >90 |
